Reference: article PMC9994261 (Cell, 2023)
In brackets after ≈: the same amount, converted by molar mass. Several values for one entry are separate records, joined by “and”; a condition that tells them apart may be missing. Identical values can stand only once. Like-named read-outs stand apart in the source and are kept apart here.

What was measured:
[1] = tested on: Mtb H37Rv SEQ-9 resistant mutants; format: cell-based, Mycobacterium tuberculosis
Mtb clinical strains = assay: microbe, parasite or virus in culture; format: cell-based; conditions: Mycobacterium tuberculosis, read-out: MIC against Mtb clinical strain

SMILES: COc1nc2ccc(Br)cc2cc1[C@@H](c1ccccc1)[C@@](O)(CCN(C)C)c1cccc2ccccc12 [BDQ, Bedaquiline]
- Growth inhibition (MIC80) [1]: 0.044 µM and 0.042 µM and 0.036 µM

SMILES: CC[C@H]1OC(=O)[C@H](C)[C@@H](O[C@H]2C[C@@](C)(OC)[C@@H](O)[C@H](C)O2)[C@H](C)[C@@H](O[C@@H]2O[C@H](C)C[C@H](N(C)C)[C@H]2O)[C@](C)(OC)C[C@@H](C)C(=O)[C@H](C)[C@@H](O)[C@]1(C)O [Clarithromycin]
- Growth inhibition @ 30µM ([1]; 30 µM): 55% and 70%

SMILES: CC(=O)NC[C@H]1CN(c2ccc(N3CCOCC3)c(F)c2)C(=O)O1 [Linezolid]
- Growth inhibition (MIC80) [1]: 0.92 µM and 0.95 µM and 1.14 µM and 0.80 µM and 0.79 µM

SMILES: CON=C1CC(C)OC(OC2C(C)CC(C)(OC(=O)NC(C)(C)CNS(=O)(=O)c3ccccc3)C(=O)C(C)C(OC(=O)CC(C)C)C(C)C(C(C)COC3OC(C)C(O)C(OC)C3OC)OC(=O)C(C)C(OC3CC(C)N(C)CC(C)O3)C2C)C1O (stereo not drawn) [SEQ-9]
- MIC (Mtb clinical strains; KMA1354-Modern): 0.9 µM (≈ 1.12 µg/mL)
- MIC (Mtb clinical strains; KMA3899-Ancient): 1.4 µM (≈ 1.74 µg/mL)
- MIC (Mtb clinical strains; KMA4244-Modern): 1.4 µM (≈ 1.74 µg/mL)
- MIC (Mtb clinical strains; KMA4439-Modern): 1.4 µM (≈ 1.74 µg/mL)
- MIC (Mtb clinical strains; KMA5282-Modern): 0.6 µM (≈ 0.746 µg/mL)
- MIC (Mtb clinical strains; KMA5319-Modern): 0.7 µM (≈ 0.87 µg/mL)
